Results from patent US9469650B2, “Melampomagnolide B derivatives” (BOARD OF TRUSTEES OF THE UNIVERSITY OF ARKANSAS, priority 2013, dated 2016).

Columns and labels:
[1] = system: SNB-75; test: panel of 60 human tumor cell lines, growth inhibition (CNS Cancer); conditions: SNB-75
[2] = system: NCI-H522; test: panel of 60 human tumor cell lines, growth inhibition (Non-Small Cell Lung Cancer); conditions: NCI-H522
[3] = system: T-47D; test: panel of 60 human tumor cell lines, growth inhibition (Breast Cancer); conditions: T-47D
[4] = system: KM12; test: panel of 60 human tumor cell lines, growth inhibition (Colon Cancer); conditions: KM12
[5] = system: HCT-116; test: as above; conditions: HCT-116
[6] = system: CCRF-CEM; test: panel of 60 human tumor cell lines, growth inhibition (Leukemia)
[7] = system: OVCAR-5; test: panel of 60 human tumor cell lines, growth inhibition (Ovarian Cancer); conditions: OVCAR-5
[8] = system: HCC-2998; test: panel of 60 human tumor cell lines, growth inhibition (Colon Cancer); conditions: HCC-2998
[9] = system: SK-OV-3; test: panel of 60 human tumor cell lines, growth inhibition (Ovarian Cancer); conditions: SK-OV-3
[10] = system: UACC-62; test: panel of 60 human tumor cell lines, growth inhibition (Melanoma); conditions: UACC-62
[11] = system: NCI/ADR-RES; test: panel of 60 human tumor cell lines, growth inhibition (Ovarian Cancer)
[12] = system: A498; test: panel of 60 human tumor cell lines, growth inhibition (Renal Cancer); conditions: A498
[13] = system: DU-145; test: panel of 60 human tumor cell lines, growth inhibition (Prostate Cancer); conditions: DU-145
[14] = system: RXF 393; test: panel of 60 human tumor cell lines, growth inhibition (Renal Cancer); conditions: RXF 393
[15] = system: SNB-19; test: panel of 60 human tumor cell lines, growth inhibition (CNS Cancer); conditions: SNB-19
[16] = system: NCI-H23; test: panel of 60 human tumor cell lines, growth inhibition (Non-Small Cell Lung Cancer)
[17] = system: SK-MEL-28; test: panel of 60 human tumor cell lines, growth inhibition (Melanoma); conditions: SK-MEL-28
[18] = system: UO-31; test: panel of 60 human tumor cell lines, growth inhibition (Renal Cancer); conditions: UO-31
[19] = system: 786-0; test: as above; conditions: 786-0

## C=C1C(=O)O[C@H]2[C@H]1CC/C(COC(=O)NC)=C\CC[C@@]1(C)O[C@@H]21 [JVM 2-57]
[1]; Log10 Concentration −4.0
  Percent Growth: −41%
[1]; Log10 Concentration −5.0
  Percent Growth: 55%
[1]; Log10 Concentration −6.0
  Percent Growth: 78%
[1]; Log10 Concentration −7.0
  Percent Growth: 76%
[1]; Log10 Concentration −8.0
  Percent Growth: 83%
[1]; NCI five dose
  GI50: 11.2 µM
  TGI: 3.72E−5
[2]; Log10 Concentration −4.0
  Percent Growth: −74%
[2]; Log10 Concentration −5.0
  Percent Growth: −73%
[2]; Log10 Concentration −6.0
  Percent Growth: 68%
[2]; Log10 Concentration −7.0
  Percent Growth: 87%
[2]; Log10 Concentration −8.0
  Percent Growth: 89%
[2]; NCI five dose
  GI50: 1.33 µM
  TGI: 3.02E−6
[3]; Log10 Concentration −4.0
  Percent Growth: −80%
[3]; Log10 Concentration −5.0
  Percent Growth: −4%
[3]; Log10 Concentration −6.0
  Percent Growth: 81%
[3]; Log10 Concentration −7.0
  Percent Growth: 86%
[3]; Log10 Concentration −8.0
  Percent Growth: 94%
[3]; NCI five dose
  GI50: 2.32 µM
  TGI: 9.04E−6
[4]; Log10 Concentration −4.0
  Percent Growth: −92%
[4]; Log10 Concentration −5.0
  Percent Growth: 73%
[4]; Log10 Concentration −6.0
  Percent Growth: 99%
[4]; Log10 Concentration −7.0
  Percent Growth: 97%
[4]; Log10 Concentration −8.0
  Percent Growth: 98%
[4]; NCI five dose
  GI50: 13.8 µM
  TGI: 2.78E−5
[5]; Log10 Concentration −4.0
  Percent Growth: −98%
[5]; Log10 Concentration −5.0
  Percent Growth: 3%
[5]; Log10 Concentration −6.0
  Percent Growth: 88%
[5]; Log10 Concentration −7.0
  Percent Growth: 93%
[5]; Log10 Concentration −8.0
  Percent Growth: 102%
[5]; NCI five dose
  GI50: 2.8 µM
  TGI: 1.07E−5
[6]; Log10 Concentration −4.0
  Percent Growth: −53%
[6]; Log10 Concentration −5.0
  Percent Growth: −29%
[6]; Log10 Concentration −6.0
  Percent Growth: 59%
[6]; Log10 Concentration −7.0
  Percent Growth: 93%
[6]; Log10 Concentration −8.0
  Percent Growth: 97%
[6]; NCI five dose
  GI50: 1.25 µM
  TGI: 4.69E−6
[7]; Log10 Concentration −4.0
  Percent Growth: −90%
[7]; Log10 Concentration −5.0
  Percent Growth: 24%
[7]; Log10 Concentration −6.0
  Percent Growth: 86%
[7]; Log10 Concentration −7.0
  Percent Growth: 84%
[7]; Log10 Concentration −8.0
  Percent Growth: 93%
[7]; NCI five dose
  GI50: 3.82 µM
  TGI: 1.62E−5
[8]; Log10 Concentration −4.0
  Percent Growth: −81%
[8]; Log10 Concentration −5.0
  Percent Growth: 65%
[8]; Log10 Concentration −6.0
  Percent Growth: 107%
[8]; Log10 Concentration −7.0
  Percent Growth: 91%
[8]; Log10 Concentration −8.0
  Percent Growth: 94%
[8]; NCI five dose
  GI50: 12.7 µM
  TGI: 2.80E−5
[9]; Log10 Concentration −4.0
  Percent Growth: −26%
[9]; Log10 Concentration −5.0
  Percent Growth: 91%
[9]; Log10 Concentration −6.0
  Percent Growth: 105%
[9]; Log10 Concentration −7.0
  Percent Growth: 90%
[9]; Log10 Concentration −8.0
  Percent Growth: 101%
[9]; NCI five dose
  GI50: 22.4 µM
  TGI: 5.96E−5
[10]; Log10 Concentration −4.0
  Percent Growth: −86%
[10]; Log10 Concentration −5.0
  Percent Growth: 35%
[10]; Log10 Concentration −6.0
  Percent Growth: 86%
[10]; Log10 Concentration −7.0
  Percent Growth: 99%
[10]; Log10 Concentration −8.0
  Percent Growth: 100%
[10]; NCI five dose
  GI50: 5.11 µM
  TGI: 1.95E−5
[11]; Log10 Concentration −4.0
  Percent Growth: −27%
[11]; Log10 Concentration −5.0
  Percent Growth: 60%
[11]; Log10 Concentration −6.0
  Percent Growth: 99%
[11]; Log10 Concentration −7.0
  Percent Growth: 101%
[11]; Log10 Concentration −8.0
  Percent Growth: 95%
[11]; NCI five dose
  GI50: 13.1 µM
  TGI: 4.89E−5
[12]; Log10 Concentration −4.0
  Percent Growth: −90%
[12]; Log10 Concentration −5.0
  Percent Growth: 32%
[12]; Log10 Concentration −6.0
  Percent Growth: 66%
[12]; Log10 Concentration −7.0
  Percent Growth: 70%
[12]; Log10 Concentration −8.0
  Percent Growth: 71%
[12]; NCI five dose
  GI50: 2.97 µM
  TGI: 1.84E−5
[13]; Log10 Concentration −4.0
  Percent Growth: −97%
[13]; Log10 Concentration −5.0
  Percent Growth: 19%
[13]; Log10 Concentration −6.0
  Percent Growth: 93%
[13]; Log10 Concentration −7.0
  Percent Growth: 103%
[13]; Log10 Concentration −8.0
  Percent Growth: 104%
[13]; NCI five dose
  GI50: 3.78 µM
  TGI: 1.45E−5
[14]; Log10 Concentration −4.0
  Percent Growth: −76%
[14]; Log10 Concentration −5.0
  Percent Growth: −2%
[14]; Log10 Concentration −6.0
  Percent Growth: 75%
[14]; Log10 Concentration −7.0
  Percent Growth: 107%
[14]; Log10 Concentration −8.0
  Percent Growth: 99%
[14]; NCI five dose
  GI50: 2.12 µM
  TGI: 9.35E−6
[15]; Log10 Concentration −4.0
  Percent Growth: −38%
[15]; Log10 Concentration −5.0
  Percent Growth: 74%
[15]; Log10 Concentration −6.0
  Percent Growth: 92%
[15]; Log10 Concentration −7.0
  Percent Growth: 95%
[15]; Log10 Concentration −8.0
  Percent Growth: 94%
[15]; NCI five dose
  GI50: 16.4 µM
  TGI: 4.59E−5
[16]; NCI five dose
  TGI: 2.04E−5
[16]; NCI-H 3, Log10 Concentration −4.0
  Percent Growth: −68%
[16]; NCI-H 3, Log10 Concentration −5.0
  Percent Growth: 30%
[16]; NCI-H 3, Log10 Concentration −6.0
  Percent Growth: 92%
[16]; NCI-H 3, Log10 Concentration −7.0
  Percent Growth: 95%
[16]; NCI-H 3, Log10 Concentration −8.0
  Percent Growth: 94%
[16]; NCI-H 3, NCI five dose
  GI50: 4.79 µM
[17]; Log10 Concentration −4.0
  Percent Growth: −79%
[17]; Log10 Concentration −5.0
  Percent Growth: 24%
[17]; Log10 Concentration −6.0
  Percent Growth: 91%
[17]; Log10 Concentration −7.0
  Percent Growth: 91%
[17]; Log10 Concentration −8.0
  Percent Growth: 98%
[17]; NCI five dose
  GI50: 4.11 µM
  TGI: 1.72E−5
[18]; Log10 Concentration −4.0
  Percent Growth: −93%
[18]; Log10 Concentration −5.0
  Percent Growth: 7%
[18]; Log10 Concentration −6.0
  Percent Growth: 82%
[18]; Log10 Concentration −7.0
  Percent Growth: 88%
[18]; Log10 Concentration −8.0
  Percent Growth: 84%
[18]; NCI five dose
  GI50: 2.63 µM
  TGI: 1.16E−5
[19]; Log10 Concentration −4.0
  Percent Growth: −88%
[19]; Log10 Concentration −5.0
  Percent Growth: 38%
[19]; Log10 Concentration −6.0
  Percent Growth: 93%
[19]; Log10 Concentration −7.0
  Percent Growth: 90%
[19]; Log10 Concentration −8.0
  Percent Growth: 96%
[19]; NCI five dose
  GI50: 5.94 µM
  TGI: 1.99E−5
